Data: patent publication US20240376076A1, “INHIBITORS TARGETING UBIQUITIN SPECIFIC PROTEASE 7 (USP7)” (Dana-Farber Cancer Institute, Inc., priority 2021, published 2024)
pIC50: −log10 of the molar value. Like-named read-outs stand apart in the source and are kept apart here.

Legend:
[1] = target: T1, USP7, Active human recombinant protein (Homo sapiens, UniProt Q93009); assay: USP7 assay (Ubiquitin-Rhodamine 110 enzymatic assay); format: biochemical; details: for pIC50: read-out: IC50
T1 construct: purchased CP Lot; 20200225001
T1 sequence (Q93009 whole entry): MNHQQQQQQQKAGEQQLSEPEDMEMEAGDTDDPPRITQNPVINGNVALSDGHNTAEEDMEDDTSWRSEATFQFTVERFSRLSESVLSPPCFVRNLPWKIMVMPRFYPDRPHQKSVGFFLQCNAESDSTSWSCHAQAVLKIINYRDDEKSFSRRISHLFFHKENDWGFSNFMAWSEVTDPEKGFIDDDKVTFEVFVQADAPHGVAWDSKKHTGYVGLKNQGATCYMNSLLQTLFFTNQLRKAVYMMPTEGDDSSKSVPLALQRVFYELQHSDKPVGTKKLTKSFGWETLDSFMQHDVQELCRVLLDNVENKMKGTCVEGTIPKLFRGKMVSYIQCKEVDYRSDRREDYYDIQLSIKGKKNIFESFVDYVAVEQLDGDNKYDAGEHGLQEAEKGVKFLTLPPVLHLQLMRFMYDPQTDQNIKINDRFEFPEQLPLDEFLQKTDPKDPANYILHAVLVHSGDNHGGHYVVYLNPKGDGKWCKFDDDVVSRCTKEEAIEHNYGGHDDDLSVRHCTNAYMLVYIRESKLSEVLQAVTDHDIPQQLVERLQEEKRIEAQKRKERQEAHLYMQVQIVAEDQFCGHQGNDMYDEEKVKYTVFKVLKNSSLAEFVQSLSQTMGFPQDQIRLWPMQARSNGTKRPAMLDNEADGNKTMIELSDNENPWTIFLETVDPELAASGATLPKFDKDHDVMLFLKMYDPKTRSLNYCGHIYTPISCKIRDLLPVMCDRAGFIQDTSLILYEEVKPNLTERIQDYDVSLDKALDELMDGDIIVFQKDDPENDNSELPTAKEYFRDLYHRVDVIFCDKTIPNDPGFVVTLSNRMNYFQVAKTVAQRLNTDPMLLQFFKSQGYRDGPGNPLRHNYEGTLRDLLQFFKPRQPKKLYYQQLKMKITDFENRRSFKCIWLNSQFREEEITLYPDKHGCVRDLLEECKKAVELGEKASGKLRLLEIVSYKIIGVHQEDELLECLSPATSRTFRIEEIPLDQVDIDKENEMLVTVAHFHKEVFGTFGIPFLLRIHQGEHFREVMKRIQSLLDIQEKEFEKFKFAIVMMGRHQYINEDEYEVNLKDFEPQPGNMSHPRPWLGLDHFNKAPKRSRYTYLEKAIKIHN
In short: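 Kinetic 20-min fluorescence read (485/535 nm) of ubiquitin-rhodamine 110 (190 nM final) cleavage by 0.05 nM USP7 gave slopes. Compounds, 10 concentrations in 3-fold steps, had 15 min RT preincubation with enzyme first. Inhibition relative to max (enzyme+substrate) and min (substrate only) signals, fitted to IC50.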

[2] = plasma stability (Plasma Assay Protocol); format: in vitro ADME; details: 37° C., t1/2 extrapolated if >50% remaining at 60 min, ∞ if near 100% remaining
Description: ND refers to not disclosed.
• 1. Preheated 0.05 M sodium phosphate and 0.07 M NaCl buffer, pH 7.4. Dissolved 14.505 g/L Na2HPO4·12H2O, 1.483 g/L NaH2PO4·2H2O and 4.095 g/L NaCl in deionized water. The basic solution was then titrated with the phosphoric acid to pH 7.40. Stored in fridge up to 7 days. Checked pH on the day of experiment and adjust if outside specification of 7.4+/−0.1. • 2. Plasma preparation: • Thawed frozen plasma by placing at 37° C. quickly. Centrifuged plasma at 3,000 rpm for 8 minutes to remove clots, pipetted and pooled the supernatant as the plasma to be used in the experiment. Checked and recorded the pH of the plasma. Only used plasma within the range of pH 7.4 to pH 8. If higher than pH 8, discarded the plasma. By using a 5% CO2 incubator and PBS buffer, a pH of 7.4 was reached after the 4 hour equilibrium dialysis time. Put the plasma on ice until used. • 3. Tested compounds and reference compounds spiking solution: • 0.5 mM test compounds spiking solution A: Added 10 μL of 10 mM test compounds stock solution to 190 μL DMSO. • 0.02 mM spiking solution B: Added 40 μL of spiking solution A to 960 μL of […] Sodium phosphate buffer with 0.5% BSA.
Pre-warmed the plasma and spiking solution B at 37° C. for 5 min. Added 10 μL of pre-warmed spiking solution B into the wells designated for all the time points (5, 15, 30, 45, 60 min).
For 0-min, added 400 μL of acetonitrile (ACN) containing the internal standard (IS) to the wells of 0-min plate and then added 90 μL of plasma. Added 90 μL of pre-warmed plasma into the wells designated for the time points (0, 5, 15, 30, 45, 60 min), and started timing. At 5, 15, 30, 45, 60 min, added 400 μL of ACN containing IS to the wells of corresponding plates, respectively, to stop the reaction. After quenching, shook the plates at the vibrator (IKA, MTS 2/4) for 10 min (600 rpm/min) and then centrifuged at 5594 g for 15 min (Thermo Multifuge×3R). Transferred 50 μL of the supernatant from each well into a 96-well sample plate containing 50 μL of ultra pure water (Millipore ZMQS50F01) for LC/MS analysis.

[3] = mouse liver microsomal stability (Microsome Assay Protocol); format: in vitro ADME; details: pH 7.4; mouse liver microsomes, NADPH, 37° C.; read-out: MLM t1/2, min
In short: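 Compound at 1.5 μM was mixed with 0.75 mg/mL mouse liver microsomes in 0.1 M potassium phosphate, 1.0 mM EDTA, pH 7.4, then started with NADPH from a 6 mM stock after 5 min preincubation at 37 °C. Samples taken at 0, 5, 15, 30 and 45 min were quenched with acetonitrile containing internal standard and analysed by LC/MS.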

Row | Compound | pIC50 [1] | half-life at 2 µM [2] [h] | half-life at 1 µM [3] [min] | Plasma t1/2, min [2] | IC50 ([1]; 1 h, read-out: IC50, μM (1 h)) [µM] | IC50 ([1]; 6 h, read-out: IC50, μM (6 h)) [µM] | IC50 ([1]; 16 h, read-out: IC50, μM (16 h)) [µM]
1 | CN1CCN(CCOc2ccc3c(=O)n(CC4(O)CCN(C(=O)C(CCCNC(=O)c5ccc6c(Cl)ccnc6c5)Cc5ccccc5)CC4)cnc3c2)CC1 (centres unmarked) [Compound 30, N-(4-benzyl-5-(4-hydroxy-4-((7-(2-(4-methylpiperazin-1-yl)ethoxy)-4-oxoquinazolin-3(4H)-yl)methyl)piperidin-1-yl)-5-oxopentyl)-4-chloroquinoline-7-carboxamide] | 7.00 to 7.70 | 112 | 15.7 | – | – | – | –
2 | CN(C)CCCOc1ccc2c(=O)n(CC3(O)CCN(C(=O)[C@H](CCCNC(=O)c4ccc5c(Cl)cc(C6CC6)nc5c4)Cc4ccccc4)CC3)cnc2c1 | > 7.70 | – | 27.1 | ∞* | – | – | –
3 | CC(C)c1cnc2cc(C(=O)NCCN3CCC(C(=O)N4CCC(O)(Cn5cnc6cc(OCCN7CCNCC7)ccc6c5=O)CC4)C(c4ccccc4)C3)ccc2c1Cl (centres unmarked) [Compound 108] | > 7.70 | – | 14 | ∞* | – | – | –
4 | O=C(CCN1CCNCC1)Nc1ccc2c(=O)n(CC3(O)CCN(C(=O)C(CCCNC(=O)c4ccc5c(Cl)ccnc5c4)Cc4ccccc4)CC3)cnc2c1 (centres unmarked) [Compound 61, N-(4-benzyl-5-(4-hydroxy-4-((4-oxo-7-(3-(piperazin-1-yl)propanamido)quinazolin-3(4H)-yl)methyl)piperidin-1-yl)-5-oxopentyl)-4-chloroquinoline-7-carboxamide] | 7.00 to 7.70 | 3.22 | 28.4 | – | – | – | –
5 | CN(C)CCCOc1ccc2c(=O)n(CC3(O)CCN(C(=O)[C@H](CCCNC(=O)c4ccc5c(Cl)c(C(N)=O)cnc5c4)Cc4ccccc4)CC3)cnc2c1 | > 7.70 | 1.86 | 46.6 | – | – | – | –
6 | CN1CCN(CCC(=O)Nc2ccc3c(=O)n(CC4(O)CCN(C(=O)C5CCN(c6cccc7c6CN(C#N)C7)C[C@H]5c5ccccc5)CC4)cnc3c2)CC1 (some centres unmarked) [Compound 94] | 6.00 to 7.00 | 0.0218 | 30.8 | – | – | – | –
7 | CN(C)CCOc1cc(F)c2c(=O)n(CC3(O)CCN(C(=O)C4CCN(CCNC(=O)c5ccc6c(Cl)ccnc6c5)CC4c4ccccc4)CC3)cnc2c1 (centres unmarked) [Compound 112] | 6.00 to 7.00 | 5.08 | 45.3 | – | – | – | –
8 | CN1CCN(CCC(=O)Nc2ccc3c(=O)n(CC4(O)CCN(C(=O)C(CCCNC(=O)c5ccc6c(Cl)cc(C7CC7)nc6c5)Cc5ccccc5)CC4)cnc3c2)CC1 (centres unmarked) [Compound 22] | 7.00 to 7.70 | 2.25 | 18.3 | – | – | – | –
9 | CN1CCC(OCCOc2ccc3c(=O)n(CC4(O)CCN(C(=O)[C@H](CCCNC(=O)c5ccc6c(Cl)cc(C7CC7)nc6c5)Cc5ccccc5)CC4)cnc3c2)CC1 [Compound 132] | 7.00 to 7.70 | – | 6.96 | ∞* | – | – | –
10 | C=CC(=O)Nc1ccncc1N1CCC(C(=O)N2CCC(O)(Cn3cnc4cc(NC(=O)CCN5CCN(C)CC5)ccc4c3=O)CC2)C(c2ccccc2)C1 (centres unmarked) [Compound 106] | – | 0.113 | 39 | – | 0.1 to 1 | < 0.02 | < 0.02
11 | CCc1cc(Cl)c2ccc(C(=O)NCCCC(Cc3ccccc3)C(=O)N3CCC(O)(Cn4cnc5cc(NC(=O)CCN(C)C)ccc5c4=O)CC3)cc2n1 (centres unmarked) [Compound 79] | 7.00 to 7.70 | 3.91 | 10.5 | – | – | – | –
12 | C=CC(=O)Nc1ccccc1N1CCC(C(=O)N2CCC(O)(Cn3cnc4cc(NC(=O)CCN5CCN(C)CC5)ccc4c3=O)CC2)C(c2ccccc2)C1 (centres unmarked) [Compound 102] | 6.00 to 7.00 | 0.0708 | 26.9 | – | – | – | –
13 | CN1CCN(CCC(=O)Nc2ccc3c(=O)n(CC4(O)CCN(C(=O)C(CCCNC(=O)c5ccc6c(Cl)ccnc6c5)Cc5ccccc5)CC4)cnc3c2)CC1 (centres unmarked) | 7.00 to 7.70 | 5.46 | 11 | – | – | – | –
14 | CN(C)CCC(=O)Nc1ccc2c(=O)n(CC3(O)CCN(C(=O)C(CCCNC(=O)N4CCc5c(Cl)ccnc5C4)Cc4ccccc4)CC3)cnc2c1 (centres unmarked) [Compound 43] | 7.00 to 7.70 | 3.09 | 8.3 | – | – | – | –
15 | CN(C)CCC(=O)Nc1ccc2c(=O)n(CC3(O)CCN(C(=O)C(CCCNC(=O)c4ccc5c(Cl)c6c(nc5c4)C4CCC6C4)Cc4ccccc4)CC3)cnc2c1 (centres unmarked) [Compound 91] | 7.00 to 7.70 | 5.59 | 2.97 | – | – | – | –
16 | CN(C)CCC(=O)Nc1ccc2c(=O)n(CC3(O)CCN(C(=O)[C@H](CCCNC(=O)c4ccc5c(Cl)c6c(nc5c4)CCC6)Cc4ccccc4)CC3)cnc2c1 [Compound 114] | > 7.70 | 11.7 | 4.13 | – | – | – | –
17 | CN(C)CCCOc1ccc2c(=O)n(CC3(O)CCN(C(=O)C(CCCNC(=O)c4ccc5c(Cl)cc(C6CC6)nc5c4)Cn4ccc(F)n4)CC3)cnc2c1 (centres unmarked) | > 7.70 | 3.14 | 17 | – | – | – | –
18 | C=CS(=O)(=O)Nc1ccccc1N1CCC(C(=O)N2CCC(O)(Cn3cnc4cc(NC(=O)CCN5CCN(C)CC5)ccc4c3=O)CC2)[C@H](c2ccccc2)C1 (some centres unmarked) [Compound 93] | > 7.70 | 0.172 | 14.7 | – | – | – | –
19 | CN(C)CCC(=O)Nc1ccc2c(=O)n(CC3(O)CCN(C(=O)C(CCCC(=O)Nc4ccc5c(Cl)ccnc5c4)Cc4ccccc4)CC3)cnc2c1 (centres unmarked) [Compound 78] | > 7.70 | 1.29 | 14.6 | – | – | – | –
